Test results as given in US10538567B2, “Compounds as peptidic trigonal GLP1/glucagon/GIP receptor agonists” (priority 2016, dated 2020).

Experiments:
[1] = Chemical stability assessment, UPLC-UV purity loss in buffer system A; format: physicochemical; details: 1 mg/ml, 25 mM acetate buffer pH 4.5 with m-cresol
In short: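 Peptide at 1 mg/mL pure compound (purity-corrected) in 25 mM acetate buffer pH 4.5 with L-methionine, m-cresol and glycerol was sterile-filtered and stored 28 days at 5 and 40° C. UPLC-UV purity (peptide peak area/total area) was compared with the starting value to give relative purity loss in %.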

[2] = Thioflavin T (ThT) assay for physical stability (fibrillation); format: physicochemical; details: 3 mg/ml, 100 mM acetate pH 4.5 with m-cresol, 37° C. shaking
In short: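 Peptides at 3 mg/ml final with 100 μM ThT final in 100 mM acetate pH 4.5 containing 2.7 mg/mL m-cresol, eight replicates. Stressed at 37° C by repeated cycles of 10 s shaking at 960 rpm and 50 s rest. Fluorescence read every 20 minutes; lag time in hours taken from the sigmoidal kinetic curve.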

[3] = system: female diabetic db/db mice; experiment: Acute effects after s.c. treatment on blood glucose in non-fasting female diabetic db/db mice; format: in vivo; details: single 30 μg/kg s.c.
Protocol: Female healthy, lean BKS.Cg-(lean)/OlaHsd and diabetes-prone, obese BKS.Cg-+Lepr^db/+Lepr^db/OlaHsd mice were ordered group housed from Envigo RMS Inc., shipped group housed and remained group housed in shoebox caging with wood chip bedding until day 15 of the predose phase. At the study start mice were approximately 12 weeks old.
Mice were housed under vivarium conditions including a 12 h light/dark cycle (light phase 04:00 AM-4:00 PM), room temperatures between 23-26° C. and a relative humidity between 30-70%. All animals had free access to water and Purina Fomulab Diet 5008.
On predose day 9 blood glucose and body mass (approximately between 08:00-10:00 AM) as well as HbA1c measurements were performed. On day 15 of the predose phase animals were assigned to treatment groups (n=8) and to new cages to match mean HbA1c and body masses between all db/db groups. An age-matched lean group was included in the study as a healthy, lean reference.
Prior to day 1 of the dosing phase, the test article was diluted with Phosphate Buffered Saline (PBS, Gibco, without CaCl2 and MgCl2) to a concentration of 1 mg/mL and aliquots of this stock solution were stored at approximately ≤−60° C. On day 1 of the dosing phase the stock aliquot was thawed and the injected test article solution was prepared fresh by diluting it with PBS to achieve the desired concentration.
On Day 1 of the dosing phase db/db mice were either treated once with a s.c. injection of PBS-vehicle or 30 μg/kg test article. The lean reference group was treated once with a s.c. injection of PBS-vehicle. The dosing was initiated and completed between 08:00 and 10:00 AM. The applied volume was 5 ml/kg and the dose was adjusted to the most recent body mass recording of each individual.
Animals had unlimited access to water and feed during the experiment. On day 1 of the dosing phase approximately 5 μL of blood were collected via tail clips at minute −30 and 0 prior to any other inlife activities. At minute 0 mice received a s.c. dose of either PBS-vehicle or 30 μg/kg test article. Further blood samples were harvested at hour 0.25, 0.5, 1, 1.5, 2, 3, 4, 6, 8, and 24 post-dose. Glucose measurements were performed in whole blood using AlphaTRAK glucometers. If the glucose concentrations of two measurements differed by more than 20 mg/dL a third value was recorded. The Area Under the Curve (AUC) for blood glucose was calculated via the trapezoid method and for the duration of the 24 post-dose hours.
In the Figures data are depicted as means±SEM. […] A One Way Analysis of Variance and multiple comparisons (Dunnett's Method) were performed comparing the group of diabetic, obese db/db vehicle mice (n=8) with each diabetic, obese db/db test article treated mice (n=8). […] Non-diabetic, lean-vehicle group data are depicted in the Figures serving as a reference dataset for the non-obese, non-diabetic state.

Compound | Chemical stability [relative purity loss 28 days 40° C.] (%) at pH 4.5 [1] [%] | Lag time before increase [2] [h] | mean blood glucose concentration 24 hours post-dose relative to baseline [3]
CCCCCCCCCCCCCCCC(=O)N[C@@H](CCC(=O)N[C@@H](CCC(=O)NCCCC[C@H](NC(=O)[C@H](CC(C)C)NC(=O)[C@H](CCCCN)NC(=O)[C@H](CO)NC(=O)[C@H](CC(C)C)NC(=O)[C@H](CC(=O)O)NC(=O)[C@H](CO)NC(=O)[C@@H](NC(=O)[C@H](Cc1ccccc1)NC(=O)[C@@H](NC(=O)CNC(=O)[C@H](Cc1c[nH]cn1)NC(=O)C(C)(C)NC(=O)[C@@H](N)Cc1c[nH]cn1)[C@@H](C)O)[C@@H](C)O)C(=O)N[C@@H](CCC(=O)O)C(=O)N[C@@H](CCC(=O)O)C(=O)N[C@@H](CCC(N)=O)C(=O)N[C@@H](CCCNC(=N)N)C(=O)N[C@@H](CCC(N)=O)C(=O)N[C@@H](CCCCN)C(=O)N[C@@H](CCC(=O)O)C(=O)N[C@@H](Cc1ccccc1)C(=O)N[C@H](C(=O)N[C@@H](CCC(=O)O)C(=O)N[C@@H](Cc1c[nH]c2ccccc12)C(=O)N[C@@H](CC(C)C)C(=O)N[C@@H](CCCCN)C(=O)N[C@@H](C)C(=O)NCC(=O)NCC(=O)N[C@@H](Cc1c[nH]cn1)C(=O)N1CCC[C@H]1C(=O)N[C@@H](CO)C(=O)NC(C)(C)C(=O)N[C@@H](CCCCN)C(=O)N1CCC[C@H]1C(=O)N1CCC[C@H]1C(=O)N1CCC[C@H]1C(=O)N[C@@H](CCCCN)C(N)=O)[C@@H](C)CC)C(=O)O)C(=O)O [SEQ ID NO: 6, H-Aib-H-G-T-F-T-S-D-L-S-K-L-K[gGlu-gGlu-Palm]-E-E-Q-R-Q-K-E-F-I-E-W-L-K-A-G-G-H-P-S-Aib-K-P-P-P-K-NH2] | 7.1 | >45 | at or close to baseline
CCCCCCCCCCCCCCCC(=O)N[C@@H](CCC(=O)N[C@@H](CCC(=O)NCCCC[C@H](NC(=O)[C@H](CC(C)C)NC(=O)[C@H](CCCCN)NC(=O)[C@H](CO)NC(=O)[C@H](CC(C)C)NC(=O)[C@H](CC(=O)O)NC(=O)[C@H](CO)NC(=O)[C@@H](NC(=O)[C@H](Cc1ccccc1)NC(=O)[C@@H](NC(=O)CNC(=O)[C@H](Cc1c[nH]cn1)NC(=O)C(C)(C)NC(=O)[C@@H](N)Cc1c[nH]cn1)[C@@H](C)O)[C@@H](C)O)C(=O)N[C@@H](CCC(=O)O)C(=O)N[C@@H](CCC(=O)O)C(=O)N[C@@H](CCC(N)=O)C(=O)N[C@@H](CCCNC(=N)N)C(=O)N[C@@H](CCC(N)=O)C(=O)NC(C)(C)C(=O)N[C@@H](CCC(=O)O)C(=O)N[C@@H](Cc1ccccc1)C(=O)N[C@H](C(=O)N[C@@H](CCC(=O)O)C(=O)N[C@@H](Cc1c[nH]c2ccccc12)C(=O)N[C@@H](CC(C)C)C(=O)N[C@@H](CCCCN)C(=O)N[C@@H](C)C(=O)NCC(=O)NCC(=O)N1CCC[C@H]1C(=O)N1CCC[C@H]1C(=O)N[C@@H](CO)C(=O)NC(C)(C)C(=O)N[C@@H](CCCCN)C(=O)N1CCC[C@H]1C(=O)N1CCC[C@H]1C(=O)N1CCC[C@H]1C(=O)N[C@@H](CCCCN)C(N)=O)[C@@H](C)CC)C(=O)O)C(=O)O [SEQ ID NO: 10, H-Aib-H-G-T-F-T-S-D-L-S-K-L-K[gGlu-gGlu-Palm]-E-E-Q-R-Q-Aib-E-F-I-E-W-L-K-A-G-G-P-P-S-Aib-K-P-P-P-K-NH2] | 10.6 | >45 | at or close to baseline
